Here are results for 90 compounds from a melting point compilation (Tetko et al.; mined from patent text by program, amines drawn as free bases though some values may be those of a salt).

Bounds are passed on as bounds.

As to `CC1(C)Cc2nc(N)sc2C(C)(C)C1`, the melting point was 120 to 122 °C. Consider `Cc1c(C(=O)N[C@@H](Cc2ccc(OCc3ccccc3)cc2)C(=O)O)oc2cc(-c3ccc(Cl)cc3)ccc12`, for which the melting point was in the range of 143 to 144 °C.

With `COc1ccn2nc(SCc3ccccc3)nc2n1`, the melting point lay within 126 to 128 °C.

Compound `OC1CSC(Oc2cnc(-c3ccc(F)nc3)c(F)c2)C(O)C1O` (stereo not given) yielded a melting point of 184 °C. Then `O=C1c2cc(Cl)ccc2OC(CCCCl)N1O` (stereo not given), with 70 to 75 °C. In the case of `CN(CC1=C(C#N)C(c2cccc3nonc23)c2c[nH]nc2N1)C(=O)OC(C)(C)C` (stereo not given), the melting point is 207 °C. With `Cc1cc(CC(=O)N[C@H]2CC[C@H](CCN3CCN(c4nccc5c4CCO5)CC3)CC2)on1`, the melting point came out at 172 °C. Then `O=C(OCc1ccccc1)c1cc(C(=O)OCc2ccccc2)n(CCBr)n1`, with 112 °C; and `Cc1ccc(-c2sc(N)c(C(=O)c3ccc(Cl)cc3)c2CN(C2CCCCC2)C2CCCCC2)cc1`, with 191 to 194 °C; and `CN1CCN(C(=O)c2cc(=O)c3c(OCCOc4ccccc4)cccc3o2)CC1`, with 90 to 91.5 °C. In the case of `CCOC(=O)c1ccc2c(c1)C(=O)CC(c1ccccc1)=N2` it was more than 300 °C; in that of `COc1nc(C)c(C)nc1N(C)C(=O)N1CCN(c2cc(Cl)cc(Cl)c2)CC1`, 97 to 99 °C. In the case of `CC(=O)N[C@@H]1C(O)O[C@H](COC(C)=O)[C@@H](O)[C@@H]1O` (stereo not given in full) it was 47 to 51 °C.

For the compound `NC(=O)c1ccc(CCN2CC=C(c3c[nH]c(-c4ccc(F)cc4)c3-c3ccncc3)CC2)cc1`, the melting point fell in the range of 202 to 204 °C. In the case of `CC1(C)Nc2nc(Cl)ccc2NC1=O` it was 229 °C. In the case of `CCCOCCOc1ccc(-c2ccc3c(c2)C=C(C(=O)OC)CCN3c2ccccc2)cc1` it was 117 to 119 °C.

With `Cc1c(-c2ccc(Cl)cc2)n(Cc2ccc(OCCN3CCCCC3)cc2)c2ccc(O)cc12`, the melting point lay in the range of 161 to 164 °C. In the case of `Cc1cc(NCc2ccccc2)c(C)c2c1OCC2c1ccc(C(C)C)cc1` (stereo not given), the melting point fell in the range of 82 to 83 °C. In the case of `COc1cccc(CCNC(=O)N(C)O)c1OC` it was 83 to 85 °C; in that of `COc1ccc(OCc2ccccc2)cc1N`, 81 °C; in that of `CC(=O)Nc1c(OCc2ccccc2)cc(Br)cc1N(C)C`, 177 °C.

In turn, `CCOC(=O)c1ncc2[nH]c3ccc(CC)cc3c2c1C` registered a melting point of 158 to 163 °C. Then `CCOC(=O)c1cn(Cc2ccccc2)nc1OCc1ccc(OCc2nc(-c3ccco3)oc2C)c(OCc2ccccc2)c1`, with 127 to 128 °C.

As for `CC(=O)C1(Nc2ccccc2)CCN(CCc2ccccc2)CC1`, the melting point came out at 101 °C. `CC(=O)Nc1cccc(NC(=O)C=C(C)C)c1` registered a melting point of 144 to 148 °C. Then `COc1ccc2c3ccnc(C)c3n(Cc3ccccc3)c2c1`, with 131 to 133 °C. Compound `Cc1ccc2c(c1)C(C1=CCN(C(C)O)CC1)CC2(O)c1ccc(F)cc1` (stereo not given) displayed a melting point of 177 to 178 °C.

With `CC(=O)SC[C@H](NC(=O)OC(C)(C)C)C(=O)NC(CS)C(C)=O` (stereo not given in full), the melting point was 111 to 113 °C. In the case of `Cc1ccccc1C(Oc1cc(OCc2ccsc2)ccc1C#N)C(=O)O` (racemic) it was 146 to 148 °C; in that of `CCNc1cccc(NC(=O)C(=O)OCC)c1C#N`, 99 to 102 °C; in that of `CNC(=O)N1CCN(CC(O)COc2ccccc2)CC1` (stereo not given), 91 to 95 °C. In turn, `O=[N+]([O-])c1ccccc1OCC(O)CO` (stereo not given) came in with a melting point of 96 °C. For `COc1cc(OC)nc(C(CC(=O)C(C)(C)C)C(=O)NS(C)(=O)=O)n1` (stereo not given), the melting point is 97 to 98 °C. Then `CCOC(=O)c1cccc(-c2ccc(F)c3cc(CO)sc23)c1`, with 89 to 90 °C; and `COc1cccc(S(=O)(=O)N(CC(N)=O)c2ccc(Cl)cc2Cc2ccccc2Cl)c1`, with 65.7 °C; and `NS(=O)(=O)c1ccc(-n2nc(C(F)(F)F)c(C3CC3)c2-c2ccccc2)cc1`, with 173 to 174 °C. Then `NS(=O)(=O)c1ccc(-n2nc(CNC(=O)Nc3cccc(C(F)(F)F)c3)cc2-c2ccccc2)cc1`, with 185 to 190 °C; and `O=C(O)C1CCc2sc3ccccc3c2C1` (stereo not given), with 202 to 203 °C. With `CC(=CC(=O)O)c1cccc(-c2cc3c(cc2C)C(C)(C)CCC3(C)C)c1`, the melting point lay within 89 to 90 °C. Then `CC(C(=S)c1cc(NC=O)ccn1)S(C)=O` (stereo not given), with 132 °C; and `CN(C)CCNC(=O)N1CCC(Sc2ccc(Cl)cc2)C1` (stereo not given), with 97 to 98.5 °C; and `O=C(Cc1ccc2[nH]cc(CCN3C(=O)c4ccccc4C3=O)c2c1)NCc1ccccc1`, with 165 to 166 °C. Then `COc1ccc(-c2nn(CC3CC3)c(=O)cc2-c2ccncc2)cc1`, with 128 to 130 °C.

The compound `COc1ccc(S(=O)(=O)N(Cc2ccccc2)c2c(C(=O)O)cnc3c2c(C)nn3C)cc1` gave a melting point of 165 to 167 °C.

In turn, `O=C(Nc1ccc2c(c1)CCOC2)OCc1ccccc1` yielded a melting point of 142 to 145 °C.

The compound `COc1nc(C)c([N+](=O)[O-])cc1C` returned a melting point of 85.9 to 90.5 °C. Then `CCCC(=O)C1=C(O)CC(c2cc(C3CCCO3)no2)CC1=O` (stereo not given), with 102 to 104 °C; and `CCCCCCCCCCCCCCCCCC(=O)CC(=O)OC`, with 52 to 54 °C; and `CN(C)C(=O)N(C)c1nnc(SCc2ccccc2)s1`, with 48 to 51 °C. In the case of `CC(=O)N(Cc1ccc2c(c1)OCO2)c1ccc(Oc2ccccc2)cc1` it was 75 to 76 °C; in that of `Cc1cc2c(cc1OCCn1ccnc1)CCCC2=O`, 118 to 120 °C. Then `COc1ccc2c(c1)c(C(C)C(=O)O)cc(=O)n2Cc1ccccc1Cl` (stereo not given), with 187 to 188 °C; and `CNCCC(O)(COc1ccccc1)c1ccccc1` (stereo not given), with 98 to 99 °C; and `N#Cc1ccc(N2CCOCC2)cc1`, with 80 to 81 °C. Consider `Cc1ccc(CC2CCN(C(=O)C(=O)O)CC2)cc1`, for which the melting point lay in the range of 133 to 135 °C. With `CC(C)CN1C(=O)[C@@H](CC(N)=O)O[C@H](c2ccccc2Cl)c2cc(Cl)ccc21` (relative stereo), the melting point fell in the range of 271 to 272 °C. In the case of `C=Cc1cccc(C(OS(=O)(=O)c2ccc(Cl)cc2)(C(F)(F)F)C(F)(F)F)c1` it was 70 °C. Then `CCOCc1nc2c(N)nc3ccccc3c2n1CC1(O)CCN(C)CC1`, with 198 °C. `CN1CCC2(CC1)NC(=O)N(c1ccc(C#N)c(C(F)(F)F)c1)C2=N`: the melting point lay within 199 to 200 °C. For `CCCCN(c1nc(Cl)nc(N(CCCC)C2CC(C)(C)N(OC3CCCCC3)C(C)(C)C2)n1)C1CC(C)(C)N(OC2CCCCC2)C(C)(C)C1`, the melting point was 75 to 82 °C. Then `COc1ccc(Cn2c(N)c(Br)c(=O)[nH]c2=O)cc1`, with 247 °C. Then `CSC1NC(=O)N(c2ccc(Cl)cc2)C(=O)N1N=C(C)C` (stereo not given), with 142 to 144 °C; and `CC(=O)Nc1cc(Oc2c(Cl)cc(-n3ncc(=O)[nH]c3=O)cc2Cl)ccc1O`, with 101 to 109 °C. In the case of `O=c1[nH]c(=Cc2ccc(OCc3ccccc3)cn2)c(=O)[nH]c1=Cc1cccc(Cl)c1` it was 236 to 237 °C. In turn, `CCCCCCCCCCCCCCCCS(=O)(=O)c1ccc(-n2c(=O)cc(N)n2C(=O)OCC)cc1` showed a melting point of 92 °C. Consider `CC(=O)NC1C(C)(C)c2ccc(CCN3CCN(c4nsc5ccccc45)CC3)cc2C1(C)C` (stereo not given), for which the melting point is 75 to 80 °C. Then `CCOC(=O)CN(N)C(=O)Nc1ccccc1C(=O)C1CCCCC1`, with 108 to 110 °C. In the case of `O=C(O)c1cc(C(F)(F)F)ccc1O` it was 149 to 151 °C; in that of `COc1ccc(N)c(C2OCCO2)c1OC`, 78 to 80 °C.

On to `CSc1ccc(C[C@@H](NC(=O)OCc2ccccc2)[C@H](O)C(=O)O)cc1`, for which the melting point lay in the range of 174 to 177 °C. In the case of `CC1(CCl)Oc2ccc([N+](=O)[O-])cc2O1` (stereo not given) it was 72 to 73 °C; in that of `CC(C)(C)C(OC(=O)Cl)C(Oc1ccc(Cl)cc1)N1CN=CN1` (stereo not given), 75 to 80 °C; in that of `O=C(Nc1ccccc1)Nc1ccnc(C(F)(F)F)c1`, 169 to 171 °C. Then `O=C1COCCOCC(=O)NCCSCCSCCN1`, with 145 °C; and `CC1(C)OCCN1c1nc(-c2ccc(C#N)cc2)cs1`, with 108 to 111 °C. In the case of `C=CCOc1ccc(C(=O)C=Cc2cc(OC)cc(OC)c2)cc1`, the melting point was in the range of 88.5 to 90 °C. Then `COc1ccc2c(c1)c(CCl)nn2Cc1ccccc1`, with 78 to 80 °C.

Compound `Cn1ccc2cc(Nc3ccncc3)ccc21` came in with a melting point of 202 to 203 °C. In the case of `CC(=O)c1cccc([C@H]2C[C@H]2NC(=O)Nc2ccc(Cl)cn2)c1` (racemic) it was 144 to 145 °C; in that of `CCOC(=O)COc1c(C)cc(C(O)(C(F)(F)F)C(F)(F)F)cc1C`, 99 to 101 °C. Then `CCOP(=O)(OCC)c1c(-c2c(OC)ccc3ccccc23)cc2c(c1-c1ccccc1)COC2`, with 123 to 125 °C; and `Oc1ccc(Nc2nnc(Cc3ccncc3)c3ccccc23)cc1`, with 239 to 241 °C. Then `CCc1cc(CC)n2ncc(Br)c2n1`, with 64 to 65 °C; and `COC(=O)c1cc(NN=C(c2ccccc2)c2ccccc2)c(C#N)s1`, with 178 to 180 °C. Take `CCN(CC)C(=O)c1cccnc1OC`: the melting point stood at 83 °C.

`O=[N+]([O-])c1cccc(C2=NCN(c3cccnc3)S2)c1`: the melting point fell in the range of 109 to 111 °C.

Compound `O=C(O)c1cccc(-c2ccc3c(n2)C(Oc2ccc(Cl)cc2Cl)CC3)c1` (stereo not given) yielded a melting point of 198 to 204 °C. In the case of `Fc1ccc2c(c1F)C(C#CC1CC1)(C(F)(F)F)NC(=S)N2` (racemic) it was 241 to 243 °C; in that of `O=C1c2ccccc2CN1C1CCN(c2ccc(C(OCc3ccccc3)c3ccccc3)cc2)CC1` (stereo not given), 112 to 115 °C; in that of `O=c1[nH]c(NCCCOc2cccc(CN3CCCCC3)c2)ncc1CCCc1ccccc1`, 104 to 108 °C.
